Source: PubChem BioAssay (NCI)
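Growth conditions: 96-well plates. Treatment: test compound, 48 hours, 5 concentrations. Analysis: linear interpolation between bracketing concentrations; unreached endpoints set to highest concentration. Definition used: TGI = concentration required for complete inhibition of growth.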 Where a SMILES comes first, the peptide text is derived from it. The star is where a group is joined. Boc = CC(C)(C)OC(=O)*

Columns and labels:
Experiment in all cases: NCI anticancer screen, dose series, 48 h
CAKI-1 renal = system: CAKI-1 renal
HCT-15 colon = system: HCT-15 colon
HS 578T breast = system: HS 578T breast
HT29 colon = system: HT29 colon
KM12 colon = system: KM12 colon
MCF7 breast = system: MCF7 breast
OVCAR-5 ovarian = system: OVCAR-5 ovarian
OVCAR-8 ovarian = system: OVCAR-8 ovarian
SF-268 CNS = system: SF-268 CNS
SK-MEL-2 melanoma = system: SK-MEL-2 melanoma
SNB-75 CNS = system: SNB-75 CNS
T-47D breast = system: T-47D breast
U251 CNS = system: U251 CNS
UACC-257 melanoma = system: UACC-257 melanoma
UACC-62 melanoma = system: UACC-62 melanoma
HL-60(TB) leukemia = system: HL-60(TB) leukemia
NCI-H226 lung = system: NCI-H226 lung
OVCAR-4 ovarian = system: OVCAR-4 ovarian
NCI-H522 lung = system: NCI-H522 lung

SMILES	TGI (CAKI-1 renal)	TGI (HCT-15 colon)	TGI (HS 578T breast)	TGI (HT29 colon)	TGI (KM12 colon)	TGI (MCF7 breast)	TGI (OVCAR-5 ovarian)	TGI (OVCAR-8 ovarian)	TGI (SF-268 CNS)	TGI (SK-MEL-2 melanoma)	TGI (SNB-75 CNS)	TGI (T-47D breast)	TGI (U251 CNS)	TGI (UACC-257 melanoma)	TGI (UACC-62 melanoma)	TGI (HL-60(TB) leukemia)	TGI (NCI-H226 lung)	TGI (OVCAR-4 ovarian)	TGI (NCI-H522 lung)
CC1CC/C(=C\c2ccc(Cl)cc2)C(=O)/C1=C\c1ccc(Cl)cc1 (centres undefined)	44.9 µM	50.4 µM	93.8 µM	> 100 µM	41.5 µM	> 100 µM	44.6 µM	> 100 µM	> 100 µM	37.9 µM	> 100 µM	> 100 µM	> 100 µM	> 100 µM	57.3 µM	–	–	–	–
COc1ccccc1-c1n[nH]c(-c2ccccc2O)n1	> 100 µM	> 100 µM	> 100 µM	> 100 µM	> 100 µM	> 100 µM	> 100 µM	> 100 µM	> 100 µM	> 100 µM	> 100 µM	> 100 µM	> 100 µM	> 100 µM	> 100 µM	> 100 µM	> 100 µM	> 100 µM	–
COC(=O)CC(SCCO)SCCO	> 100 µM	–	> 100 µM	> 100 µM	> 100 µM	–	> 100 µM	> 100 µM	> 100 µM	–	> 100 µM	–	–	> 100 µM	> 100 µM	> 100 µM	> 100 µM	> 100 µM	> 100 µM
CN(OC(=O)CC(=O)c1ccccc1)C(=O)Cc1ccccc1	> 100 µM	> 100 µM	–	> 100 µM	> 100 µM	–	> 100 µM	> 100 µM	> 100 µM	> 100 µM	–	–	> 100 µM	> 100 µM	> 100 µM	> 100 µM	> 100 µM	> 100 µM	> 100 µM
O=S(=O)(O)c1cc(S(=O)(=O)O)c2c(N=Nc3ccccc3)c(O)ccc2c1	> 100 µM	> 100 µM	> 100 µM	> 100 µM	> 100 µM	–	> 100 µM	> 100 µM	> 100 µM	> 100 µM	> 100 µM	> 100 µM	> 100 µM	> 100 µM	> 100 µM	–	> 100 µM	> 100 µM	–
COC1/C=C/C(C)C(C(C)C(OC)C(C)CCC(=O)C(C)C(CC(=O)O)OC)OC(=O)/C=C/C=C(\C)CC(OC)C(OC)C2=CC(=O)O[C@@H](C(C)C(OC)CC(OC)/C=C/C(C)C(O)C1)[C@H]2O (some centres undefined)	> 1.07 µM	0.926 µM	–	0.0701 µM	> 1.07 µM	> 1.07 µM	> 1.07 µM	0.132 µM	0.157 µM	0.625 µM	0.0982 µM	0.981 µM	> 1.07 µM	> 1.07 µM	> 1.07 µM	0.074 µM	0.127 µM	> 1.07 µM	–
Cc1nc(C)c(N2CCN(C(=O)NC(CCC(=O)O)C(=O)O)CC2)c(=O)[nH]1 (centres undefined)	> 100 µM	> 100 µM	> 100 µM	> 100 µM	> 100 µM	> 100 µM	> 100 µM	> 100 µM	> 100 µM	–	–	> 100 µM	> 100 µM	> 100 µM	> 100 µM	> 100 µM	> 100 µM	> 100 µM	> 100 µM
C=C[C@@]1(C)CC(=O)[C@]2(O)[C@@]3(C)[C@@H](OC(C)=O)CCC(C)(C)[C@@H]3[C@H](O)[C@H](OC(C)=O)[C@@]2(C)O1	> 100 µM	> 100 µM	–	> 100 µM	> 100 µM	> 100 µM	> 100 µM	> 100 µM	–	> 100 µM	87.7 µM	> 100 µM	> 100 µM	> 100 µM	> 100 µM	–	> 100 µM	> 100 µM	–
COC(=O)C(Cc1c[nH]c2ccccc12)NC(=O)C(Cc1c[nH]c2ccccc12)NC(=O)C(Cc1c[nH]c2ccccc12)NC(=O)C(Cc1c[nH]c2ccccc12)NC(=O)C(Cc1c[nH]c2ccccc12)NC(=O)OC(C)(C)C (centres undefined) (Boc-WWWWW-OMe; configuration not given here)	> 100 µM	> 100 µM	–	> 100 µM	–	> 100 µM	> 100 µM	> 100 µM	> 100 µM	> 100 µM	> 100 µM	> 100 µM	> 100 µM	> 100 µM	> 100 µM	81.6 µM	> 100 µM	> 100 µM	> 100 µM
CCC(C)C1=C(O)[N+]2([O-])Oc3ccc(-c4c(O)c(O)c(-c5ccc(O)cc5)c(OC(C)=O)c4OC(C)=O)cc3OC2(C(C)CC)C(=O)N1O (centres undefined)	> 50 µM	> 50 µM	–	> 50 µM	> 50 µM	> 50 µM	> 50 µM	> 50 µM	> 50 µM	> 50 µM	> 50 µM	> 50 µM	> 50 µM	> 50 µM	> 50 µM	> 50 µM	> 50 µM	> 50 µM	> 50 µM
CCOC(=O)C12C3CCC1C2C(=O)C3 (centres undefined)	> 100 µM	> 100 µM	–	> 100 µM	> 100 µM	> 100 µM	> 100 µM	> 100 µM	> 100 µM	> 100 µM	> 100 µM	–	> 100 µM	> 100 µM	> 100 µM	–	> 100 µM	> 100 µM	> 100 µM
O=c1ccc(-c2ccc(-n3ccnc3)cc2)nn1CCO	> 100 µM	> 100 µM	> 100 µM	> 100 µM	> 100 µM	> 100 µM	> 100 µM	> 100 µM	> 100 µM	–	> 100 µM	–	> 100 µM	> 100 µM	> 100 µM	> 100 µM	–	> 100 µM	> 100 µM
O=[N+]([O-])/C(C(Cl)=C(Cl)Cl)=C(\Nc1cccc2cccnc12)Sc1ccccc1	46.7 µM	34.4 µM	38 µM	73.6 µM	28.6 µM	> 100 µM	> 100 µM	–	42 µM	82.5 µM	72.2 µM	38.4 µM	54.2 µM	55.7 µM	88.4 µM	–	86.6 µM	51.4 µM	–
CC1=CCP(C(F)(F)F)P(C(F)(F)F)C1 (centres undefined)	> 100 µM	> 100 µM	–	> 100 µM	> 100 µM	–	> 100 µM	> 100 µM	> 100 µM	–	> 100 µM	–	> 100 µM	> 100 µM	> 100 µM	> 100 µM	> 100 µM	> 100 µM	> 100 µM
COC(=O)C1=C(O)C(C(=O)OC)[C@]2(O)[C@H](C(=O)OC)[C@H]1C[C@@H](c1ccc(O)cc1)[C@H]2C(=O)OC (some centres undefined)	> 100 µM	> 100 µM	87.3 µM	> 100 µM	49.9 µM	> 100 µM	97.1 µM	> 100 µM	> 100 µM	–	81.5 µM	> 100 µM	50.1 µM	> 100 µM	> 100 µM	95.1 µM	> 100 µM	> 100 µM	–
C[C@@H]1C(=O)O[C@@H]2C[C@@]1(C)[C@@H]1C(=O)C3(O)OC14C2(C)OC(=O)[C@@]4(O)CCC1C3C(O)C=C2CC=CC(=O)[C@@]21C (some centres undefined)	> 100 µM	> 100 µM	50.7 µM	91 µM	71.1 µM	> 100 µM	67.9 µM	> 100 µM	> 100 µM	62.9 µM	54.2 µM	> 100 µM	> 100 µM	> 100 µM	> 100 µM	40.8 µM	–	> 100 µM	–
COC(=O)CC[N+]1([O-])CC1	–	> 100 µM	> 100 µM	> 100 µM	> 100 µM	> 100 µM	> 100 µM	> 100 µM	> 100 µM	–	> 100 µM	> 100 µM	> 100 µM	> 100 µM	> 100 µM	> 100 µM	> 100 µM	> 100 µM	–
CCOC(=O)CCN1C(=O)c2ccc(NC(=O)C(=O)O)cc2S1(=O)=O	> 100 µM	> 100 µM	> 100 µM	> 100 µM	> 100 µM	> 100 µM	> 100 µM	> 100 µM	–	> 100 µM	> 100 µM	–	> 100 µM	> 100 µM	> 100 µM	> 100 µM	> 100 µM	> 100 µM	> 100 µM
C(=C\c1ccccc1)/Cn1nc(-c2ccccc2)nc1-c1cnccn1	–	> 100 µM	–	> 100 µM	–	> 100 µM	> 100 µM	> 100 µM	> 100 µM	–	> 100 µM	> 100 µM	> 100 µM	> 100 µM	> 100 µM	> 100 µM	–	> 100 µM	> 100 µM
Cc1ccc(/C(O)=C/c2nc3ccccc3nc2NC23CC4CC(CC(C4)C2)C3)cc1	> 10 µM	> 10 µM	> 10 µM	> 10 µM	> 10 µM	> 10 µM	> 10 µM	> 10 µM	> 10 µM	–	> 10 µM	> 10 µM	> 10 µM	> 10 µM	> 10 µM	> 10 µM	–	> 10 µM	> 10 µM
O=C(/C=C/c1ccsc1)c1cccs1	> 100 µM	37 µM	> 100 µM	> 100 µM	35.1 µM	52.2 µM	> 100 µM	> 10 µM	81.2 µM	–	> 100 µM	54.3 µM	44.2 µM	> 100 µM	88.5 µM	–	> 100 µM	> 100 µM	39.4 µM
COC(=O)/C=C/COCC1C2CCC(=O)C21 (centres undefined)	51.5 µM	> 100 µM	–	> 100 µM	> 100 µM	> 100 µM	> 100 µM	> 100 µM	> 100 µM	> 100 µM	> 100 µM	–	> 100 µM	> 100 µM	> 100 µM	–	> 100 µM	> 100 µM	> 100 µM
Cc1ccc(-n2nnc3c(NNc4ccccc4)n[nH]c(=O)c32)cc1	> 100 µM	> 100 µM	–	> 100 µM	> 100 µM	> 100 µM	> 100 µM	> 100 µM	–	> 100 µM	> 100 µM	–	> 100 µM	> 100 µM	–	> 100 µM	> 100 µM	> 100 µM	> 100 µM
CCOC(=O)/C(=C\NC[C@@H](C)O)c1nc2ccccc2[nH]1	> 100 µM	> 100 µM	–	> 100 µM	> 100 µM	> 100 µM	> 100 µM	> 100 µM	> 100 µM	–	> 100 µM	–	–	> 100 µM	> 100 µM	90.4 µM	–	> 100 µM	> 100 µM
Nc1nc([O-])c([I+]c2ccccc2)c(=O)[nH]1	> 100 µM	> 100 µM	> 100 µM	> 100 µM	> 100 µM	> 100 µM	> 100 µM	> 100 µM	> 100 µM	–	> 100 µM	–	> 100 µM	> 100 µM	–	> 100 µM	> 100 µM	> 100 µM	> 100 µM
N#Cc1cccc(Nc2ccccc2SSc2ccccc2Nc2cccc(C#N)c2)c1	–	> 21.5 µM	> 14.6 µM	15.3 µM	16.2 µM	16.5 µM	> 21.5 µM	> 21.5 µM	> 21.5 µM	–	> 21.5 µM	> 21.5 µM	12 µM	> 21.5 µM	> 21.5 µM	14.8 µM	18.3 µM	> 21.5 µM	12.2 µM
Nc1ccc2c(c1)N(C(=O)CCCC(=O)N1CC(CCl)c3ccc(N)cc31)CC2CCl (centres undefined)	–	> 14.6 µM	1.94 µM	> 13.5 µM	3.99 µM	12.9 µM	> 41.3 µM	> 11.2 µM	3.31 µM	1.43 µM	2.87 µM	–	> 26.2 µM	> 50 µM	–	0.907 µM	> 50 µM	> 11.1 µM	0.286 µM
